Test results from paper PMC12598805, “Crystal Structure–Activity Relationship of Some MeO Phenylacrylonitriles: Dual Antimicrobial–Cytotoxic Effects and in Silico Perspectives” (ChemistryOpen, 2025).
≈ marks a conversion by molar mass, not a printed value.

Key:
Assay type in all cases: cell-based
[1] = system: Escherichia coli (ATCC 25922); experiment: MBC by sub-culture from wells without growth; details: ATCC25922, E.coli
Procedure: (§1) Escherichia coli (ATCC 25922) […]
(§2) ATCC: American Type Culture Collection; NRRL: Northern Regional Research Laboratory The compounds 2(a-c) obtained could only be completely solubilised with dimethyl sulphoxide (DMSO) and the highest possible stock solutions of 50 mg.mL-1 were prepared. […]
(§3) 3.1. Determination of Minimum Inhibition Concentration (MIC)
(§4) The minimum inhibition concentration (MIC) values of the compounds 2(a-c) against the test bacteria used in the study were determined according to the broth microdilution method.[1-2] MHB or SDB was used as test medium and bacterial and yeast suspensions were prepared at 0.5 Mc Farland concentration for each test bacteria. Double layer serial dilutions were prepared in "U" type 96-well microtiter plates. Medium+bacteria suspensions containing only medium in the first row, medium+bacteria in the second row and the final concentrations of the synthesised substances in the other rows between 25 mg.mL-1 and […] were added to the wells with a final volume of 200
(§5) μL. Ampicillin, Kanamycin and Amphotericin B standard antibiotics were used as positive controls.
(§6) Bacteria were incubated at 37±0.1 °C and C. albicans at 30±0.1 °C for 24-48 hours and the lowest concentration without growth was determined as MIC. Tests were performed in two parallel runs and mean values were given as a result. […]

[2] = system: Staphylococcus aureus (ATCC 29213); experiment: Broth microdilution MIC; details: ATCC29213, S.aureus
Procedure: Staphylococcus aureus (ATCC 29213) […]
as §2, §3, §4, §5, §6

[3] = system: Bacillus cereus (ATCC-10876); experiment: Agar diffusion, zone of inhibition; details: B.cereus, compounds at 50 mg mL^−1; for zone of inhibition at 50 mg/mL: Bacillus cereus, ATCC10876
Excerpt: (§7) The antibacterial and antifungal activities were reported utilizing the method described by the Clinical & Laboratory Standards Institute.^[ [31], [32] ^] Agar diffusion method was used to determine the antimicrobial activity of the synthesized substances. The media used were mueller hinton agar (MHA) for bacteria and sabouraud‐dextrose agar (SDA) for fungi (Merck), as recommended by the manufacturer.
(§8) The synthesized compounds were initially investigated for their antimicrobial activity to elucidate the potential therapeutic utility against various pathogenic microbes using the agar plate diffusion method. The compounds were tested at a concentration of 50 mg mL^−1, and the antibiotics (ampicillin, kanamycin, and amphotericin B) were used at 5 mg mL^−1. […] K.pneumoniae and B.cereus were resistant to ampicillin, while they were susceptible to kanamycin with inhibition values of 30 and 26 mm, respectively. No antimicrobial activity of the compounds was observed against E.faecalis, S.typhimurium, K.pneumoniae, and for the fungus compared to Amphotericin B (20 mm).
Bacillus cereus (ATCC-10876) […]
(§9) ATCC: American Type Culture Collection; NRRL: Northern Regional Research Laboratory The compounds 2(a-c) obtained could only be completely solubilised with dimethyl sulphoxide (DMSO) and the highest possible stock solutions of 50 mg.mL-1 were prepared. To these wells 50 μl of the previously prepared substances were transferred using sterile micropipette tips. For comparison, Ampicillin and kanamycin antibiotics for bacteria and Amphotericin B antibiotics for fungus were used as positive controls and DMSO was used as negative control. The prepared petri plates were kept at +4°C for about 1 hour and then the bacterial cultures were incubated at 37°C for 18-24 hours and mould cultures at 27-30°C for 48-72 hours. The zones formed were measured millimetrically with callipers. The experiments were performed with three repetitions. […]

[4] = system: Escherichia coli (ATCC 25922); experiment: Broth microdilution MIC; details: ATCC25922, E.coli
Procedure: as §1, §2, §3, §4, §5, §6

[5] = system: Pseudomonas aeruginosa (ATCC 27853); experiment: Agar diffusion, zone of inhibition; details: P.aeruginosa, compounds at 50 mg mL^−1; for zone of inhibition at 50 mg/mL: Pseudomonas aeruginosa, ATCC27853
Excerpt: as §7
as §8, with “mm). […]” for “mm).”
Pseudomonas aeruginosa (ATCC 27853) […]
as §9

Compound | MBC [1] [mg/mL] | MIC [2] [mg/mL] | zone of inhibition [3] [mm] | zone of inhibition at 50 mg/mL [3] [mm] | MIC [4] [mg/mL] | zone of inhibition [5] [mm] | zone of inhibition at 50 mg/mL [5] [mm]
COc1ccc(C=C(C#N)c2ccccc2)cc1 [2a, 3‐(4‐methoxyphenyl)‐2‐phenylacrylonitrile] | 5 (≈ 21.3 mM) | 12.5 (≈ 53.1 mM) | 15 ± 2.12 | 15 | 2.5 (≈ 10.6 mM) | 13 ± 1.41 | 13
COc1ccc(/C=C(\C#N)c2ccc(F)cc2)cc1 [2b] |  | 12.5 (≈ 49.4 mM) | 13 ± 2.83 | 13 | 25 (≈ 98.7 mM) | 12 ± 0.71 | 12
COc1ccc(/C=C(\C#N)c2cc(C(F)(F)F)cc(C(F)(F)F)c2)cc1 [2c] |  | 6.25 (≈ 16.8 mM) | 14 ± 0.71 | 14 | 25 (≈ 67.3 mM) | 15 ± 0.71 | 15
